We go through 16 compounds from patent US5258395A, “Thiazole compounds as inhibitors of SRS-A” (Yamanouchi Pharmaceutical Co., Ltd., priority 1984, dated 1993).

The subject of data set [1] is SRS-A-induced contraction of guinea pig ileum. The data set is described as follows: Inhibition of SRS-A-induced contraction of guinea pig ileum. The note with it: submaximal concentration of SRS-A (derived from guinea-pig lung), 20 min incubation, read-out: Anti-SRS-A GP ileum IC50. Here is the method:
(§1) Initiation of SRS-A- and LTD4 -Induced Contraction of Guinea Pig Ileum and Trachea
(§2) Method: Male Hartley guinea-pigs, weighing 500 to 700 g were killed by a blow on the head. The ileum and tracheal strips prepared according to the method of Constantine (1965) were suspended with 1.0 g tension in an organ bath containing 10 ml of Tyrode's solution equilibrated with a mixture of 95% O2 and 5% CO2 at 37° C. The tissues were equilibrated for 60 min.; during this period the Tyrode solution was replaced every 15 min. and the loading tension was adjusted to 1.0 g. The developed tension of the tissues was measured isometrically with a strain gauge transducer, and recorded on a Recticorder. Both the contractile response of the ileum to submaximal concentration of SRS-A (derived from guinea-pig lung) and the tracheal response to 10^-8 M LTD4 were measured in the absence and then the presence of various concentrations of test compounds. The incubation time of the compounds was 20 min.

Data set [2] relates to LTD4-induced contraction of guinea pig trachea. The data set is described as follows: Inhibition of LTD4-induced contraction of guinea pig trachea. The following applies: 10^-8 M LTD4, 20 min incubation, read-out: Anti-LTD4 GP trachea IC50. Here is the method:
as §1, §2

In data set [3] the test system is SRS-A-mediated anaphylactic asthma. The data set is described as follows: Inhibition of SRS-A-mediated anaphylactic asthma in conscious guinea-pigs. The class given is in vivo, guinea pig. The following applies: for Time to onset of cough / Mortality: 30 min before antigen challenge; for Time to onset of cough: N=8. Here is the method: Inhibition of SRS-A-Mediated Anaphylactic Asthma in Conscious Guinea-Pigs
Method: Male Harley guinea-pigs, weighing 370 to 410 g were passively sensitized by intravenously injecting 1 ml/kg of rabbit […] anti-bovine serum albumin serum (PHA titer: 20480). Twenty-four hours after the sensitization, indomethacine (2 mg/kg), mepyramine (2 mg/kg) and propranolol (0.3 mg/kg) were injected into the saphenous vein 20, 5 and 5 min., respectively, prior to the antigen challenge. Then, animals were placed in an 11 liter chamber connected to a glass nebulizer, and 1% solution of bovin serum albumin was sprayed into the chamber for 30 seconds. The animals were exposed to the antigen aerosol for 2 min. and observed for 15 min. after challenge. The time from the start of inhalation to the onset of cough and the mortality were recorded. Test compounds were orally administered 30 min. before antigen challenge.
^a) Animals were pretreated with mepyramine (2 mg/kg i.v.),
propranolol (0.3 mg/kg i.v.) and indomethacine (2 mg/kg i.v.) 5, 5 and 20
min., respectively, prior to antigen challenge.
^b) Test compound was orally administered 30 min. before antigen

Another data set deals with mice. The data set is described as follows: Toxicity, oral administration to mice. The note with it: orally. The class given is in vivo.
For another data set, the system named is rats. The data set is described as follows: Toxicity, oral administration to rats. The data set is classed as in vivo. The following applies: orally.
A further data set relates to SRS-A. The following applies: cited from earlier work.
For data set [4] the following is noted: cited from earlier work.

Usually IC50 stands for the point on the concentration scale where inhibition reaches its midpoint. With `CCCc1c(OCCCSc2nnc(N)s2)ccc(C(C)=O)c1O` [Example 2, 4-[3-[(5-amino-1,3,4-thiadizol-2-yl)thio]propoxy]-2-hydroxy-3-propylacetophenone], in data set [1], the IC50 is 180 nM.

With `CCCc1c(OCCCSc2nnc(S)s2)ccc(C(C)=O)c1O` [Example 7, 2-Hydroxy-4-[[3-(5-mercapto-1,3,4-thiadiazol-2-yl)thio]propoxy]-3-propylacetophenone], in data set [1], the IC50 is 110 nM.

Regarding `CCCc1c(OCCCSc2nnc(SCC(=O)O)s2)ccc(C(C)=O)c1O` [Example 21, [[5-[[3-(4-acetyl-3-hydroxy-2-propylphenoxy)propyl]thio]-1,3,4-thiadiazol-2-yl]thio]acetic acid], the concentration for half-maximal inhibition (IC50) in data set [1] was found to be 60 nM; in data set [2], 130 nM. Moreover, the “Inhibition of SRS-A-mediated anaphylactic asthma (in words)” value in data set [3] (3 mg/kg p.o.) is on record as “tended to inhibit the SRS-A-mediated anaphylactic asthma in conscious guinea-pigs, but this effect was not significant”; in data set [3] (10 mg/kg p.o. or higher), “significantly inhibited the SRS-A-mediated anaphylactic asthma”. For the same compound, the “Time to onset of cough” value in data set [3] (3 mg/kg p.o., control 293 ± 22) stood at 377 ± 51 s; in data set [3] (10 mg/kg p.o., control 281 ± 19, * significant vs control) it was 397 ± 42 s; in data set [3] (30 mg/kg p.o., control 281 ± 11, ** p < 0.01 vs control), 457 ± 42 s. Also, the Mortality was 5/8 in data set [3] (3 mg/kg p.o., control 6/8); 2/8 in data set [3] (10 mg/kg p.o., control 7/8, * significant vs control); 2/8 in data set [3] (30 mg/kg p.o., control 7/8, * significant vs control). Also, the minimum fatal dose result with mice and in the data set with rats was “more than 1000 mg/kg” each time.

As for `CCCc1c(OCCCCSc2nnc(SCC(=O)O)s2)ccc(C(C)=O)c1O` [Example 23, [[5-[[4-(4-acetyl-3-hydroxy-2-propylphenoxy)butyl]thio]-1,3,4-thiadiazol-2-yl]thio]acetic acid], the IC50 in data set [1] was 150 nM.

With `CCCc1c(OCCCCCSc2nnc(SCC(=O)O)s2)ccc(C(C)=O)c1O` [Example 24, [[5-[[5-(4-Acetyl-3-hydroxy-2-propylphenoxy)pentyl]thio]-1,3,4-thiadiazol-2-yl]thio]acetic acid], in data set [1], the IC50 was 190 nM.

`CCCc1c(OCCCSc2nnc(SCCC(=O)O)s2)ccc(C(C)=O)c1O` [Example 26]: the IC50 in data set [1] is 120 nM.

As to `CCCc1c(OCCCSc2snc(O)c2C(=O)O)ccc(C(C)=O)c1O` [Example 27, 5-[[3-(4-acetyl-3-hydroxy-2-propylphenoxy)propyl]thio]-3-hydroxy-4-isothiazol carboxylic acid], the concentration for half-maximal inhibition (IC50) in data set [1] was 190 nM.

As for `CCCc1c(OCCCSc2nnc(NC(=O)CC(=O)O)s2)ccc(C(C)=O)c1O` [Example 33, 3-[[5-[[3-(4-acetyl-3-hydroxy-2-propylphenoxy)propyl]thio]-1,3,4-thiadiazol-2-yl]amino]-3-oxopropionic acid], in data set [1], the IC50 came out at 91 nM.

With `CCCc1c(OCCCSc2nnc(NC(=O)C(=O)O)s2)ccc(C(C)=O)c1O` [Example 36, N-[5-[[3-(4-Acetyl-3-hydroxy-2-propylphenoxy)propyl]thio]-1,3,4-thiadizol-2-yl]oxamic acid], the IC50 in data set [1] was found to be 140 nM.

With `CCCc1c(OCCCSc2cc(C(=O)O)nc(SC)n2)ccc(C(C)=O)c1O` [Example 37, 6-[[3-(4-Acetyl-3-hydroxy-2-propylphenoxy)propyl]thio]-2-methylthio-4-pyrimidinecarboxylic acid], the IC50 in data set [1] came to 52 nM.

Regarding `CCCc1c(OCCCSc2nnc(SCCCC(=O)O)s2)ccc(C(C)=O)c1O` [Example 38, 4-[[5-[[3-(4-Acetyl-3-hydroxy-2-propylphenoxy)propyl]thio]-1,3,4-thiadiazol-2-yl]thio]butyric acid], the IC50 in data set [1] was 38 nM; in data set [2], 230 nM.

Turning to `CCCc1c(OCCCSc2nnc(SCCCCC(=O)O)s2)ccc(C(C)=O)c1O` [Example 41, 5-[[5-[[3-(4-Acetyl-3-hydroxy-2-propylphenoxy)propyl]thio]-1,3,4-thiadiazol-2-yl]thio]valeric acid], the IC50 in data set [1] turned out to be 64 nM.

In the case of `CCCc1c(OCCCSc2nnc(SCCCCCC(=O)O)s2)ccc(C(C)=O)c1O` [Example 42, 6-[[5-[[3-(4-Acetyl-3-hydroxy-2-propylphenoxy)propyl]thio]-1,3,4-thiadizol-2-yl]thio]hexanoic acid], in data set [1], the 50% inhibitory concentration (IC50) was 130 nM.

As for `CCCc1c(OCCCSc2nnc(SC(C)CCC(=O)O)s2)ccc(C(C)=O)c1O` (stereo not shown) [Example 44, 4-[[5-[[3-(4-Acetyl-3-hydroxy-2-propylphenoxy)propyl]thio]-1,3,4-thiadizol-2-yl]thio]valeric acid], the 50% inhibitory concentration (IC50) in data set [1] came to 130 nM.

On to `CCCc1c(OCCCSc2nnc(SCC(=O)N(C)O)s2)ccc(C(C)=O)c1O` [Example 51, 2-[[5-[[3-(4-acetyl-3-hydroxy-2-propylphenoxy)propyl]thio]-1,3,4-thiadiazol-2-yl]thio]-N-hydroxy-N-methylacetamide], for which the IC50 came out at 160 nM in data set [1] and 420 nM in data set [2].

`CCCc1c(OCC(O)COc2ccc3c(=O)cc(C(=O)O)oc3c2CCC)ccc(C(C)=O)c1O` (stereo not shown) [FPL 55712]: in the data set on SRS-A, the “anti-SRS-A activity in isolated tissues” value is on record as “potent anti-SRS-A activity in isolated tissues”. The biological half life entry in data set [4] (in vivo) is listed as “very short”. Moreover, the “absorption by oral route” value in data set [4] (oral route) is reported as “very poor”.
